Read-outs that look alike come from different tables or passages of the source.
Columns and labels:
[1] = tested on: dTTP-3′-ONH2
Experimental: 1 mM solution of dTTP-3′-ONH2 (100 uL) taken in 50 mM sodium acetate (pH 5.0), 50 mM sodium phosphate (pH 6.0), 50 mM sodium phosphate (pH 7.0) or 50 mM sodium bicarbonate (pH around 8, i.e. 8.25) buffers was agitated with ThermoMixer in sealed Eppendorf tubes with 2 eq of carbonylbisphosphonate as prepared in Example 1, at 25° C. After 5 min/20 min/60 min of incubation the corresponding reaction mixture had been quenched with 5-fold excess of hydroxylamine hydrochloride in 100 μL of deionized water followed by excess of aqueous 5% acetone. Thereby, non-reacted residual dTTP-ONH2 was converted to an inert acetoxime form—dTTP-OX. The quenched reaction mixtures were analyzed with reversed-phase HPLC as shown on FIG. 3 with the following conditions: C18 Xterra 3.5 μm, 4.6×50 mm column (Waters); Buffer A: 50 mM TEAB (pH 8.5), Buffer B: 100% ACN. Gradient elution method: flow rate: 1.5 mL/min, 0-2 min—0% ACN B, 5.3 min—10% ACN, 8 min—30% ACN, 8-10 min—100% ACN.
After 5 min/20 min/60 min of incubation the corresponding reaction mixture had been quenched with 100 μL of 5% acetone in 100 mM sodium bicarbonate buffer (pH around 8, i.e. 8.25). Thereby, non-reacted residual dTTP-ONH2 was converted to an inert acetoxime form—dTTP-OX. The quenched reaction mixtures were analyzed with reversed-phase HPLC as shown on FIG. 4 with the following conditions: C18 Xterra 3.5 μm, 4.6×50 mm column (Waters); Buffer A: 50 mM TEAB (pH 8.5), Buffer B: 100% ACN. Gradient elution method: flow rate: 1.5 mL/min, 0-2 min—0% ACN B, 5.3 min—10% ACN, 8 min—30% ACN, 8-10 min—100% ACN.

[2] = tested on: dATP-3′-ONH2, dTTP-3′-ONH2, dCTP-3′-ONH2 or dGTP-3′-ONH2; test: Deprotection study with various 3′-O-NH2 nucleotides (96-well screening, RP-HPLC); conditions: for pH of highest cleavage rate (optimal pH): 2 mM agent, 1 mM dNTP-3′-ONH2, pH 5.0-8.25
Experimental: The screening tests were performed in a 96-well plate with a reaction volume of 100 uL. Nucleoside triphosphate (dATP-3′-ONH2, dTTP-3′-ONH2, dCTP-3′-ONH2 or dGTP-3′-ONH2) were taken at 1 mM final concentration in one of four 50 mM buffers (A: sodium acetate pH 5.0, B: sodium phosphate pH 6.0, C: sodium phosphate 7.0, D: sodium bicarbonate pH around 8, i.e. 8.25). Tetrasodium carbonylbisphosphonate was added to the dNTPs solutions at 2 mM final concentration and incubated during 5, 20 or 60 mins prior to quenching with 2× concentration of hydroxylamine hydrochloride. The 96-well plate were agitated with Thermomixer at 25° C. or 40° C. The catalytic effect of magnesium on cleavage rate was also investigated. For this purpose, the same experiments were performed in the presence of 20 mM magnesium sulfate. Prior to HPLC analysis reaction mixtures were additionally quenched with acetone to convert 3′-ONH2 to acetoxime form. The samples were analyzed by RP-HPLC with gradual gradient of acetonitrile in 50 mM TEAB buffer (pH 8.5). The cleavage rate was determined based on the ratio between dNTP-3′-OH and dNTP-3′-acetoxime.
Xterra RP C18 Column: 4.6*50 mm, (3.5 um silica), Buffer A: 50 mM TEAA (pH 7.0), Buffer B: 100% ACN. Method: 0-2 min—0% ACN B, 6 min—10% ACN, 8 min—30% ACN, 8-10 min—100% ACN. Flowrate: 1.5 mL/min, no loop insert.

CC(=O)P(=O)(O)O [acetylphosphonic acid, Acetylphosphonic acid]
conversion of 3′-ONH2 to 3′-OH ([1]; 2 eq, 60 minutes, pH 6 or 7, 25° C.): about 60%

O=C(P(=O)(O)O)P(=O)(O)O [carbonylbisphosphonate, Tetrasodium Carbonylbisphosphonate]
conversion of 3′-ONH2 to 3′-OH ([1]; 2 eq deprotecting agent, pH 5, 5 min, 25° C., 1 mM dTTP-3′-ONH2): 100% | pH of highest cleavage rate (optimal pH) [2]: around 5 | pH of highest cleavage rate (optimal pH) ([2]; listed as carbonyl bisphosphonate): 5.0 | Mg (II) impact on cleavage yield ([2]; 20 mM magnesium sulfate): Magnesium markedly facilitates the cleavage yield at higher pH

O=NO [sodium nitrite, reference compound]
conversion to dTTP-OH ([1]; pH 5): about 80% | reaction speed with oxyamines compared with carbonylbisphosphonate ([1]; pH 5): several times slower

Source: patent US20250154547A1, “REAGENTS AND METHODS USED IN DEPROTECTION OF 3'-O-AMINO POLYNUCLEOTIDES” (priority 2023, published 2025)
